Patent US20260049076A1, “Tertiary Amine Substituted Bicyclic Compounds Useful as T Cell Activators” (BRISTOL-MYERS SQUIBB COMPANY, priority 2022, published 2026)

Legend:
human DGKα = target: T1, human DGKα (Homo sapiens, UniProt P23743); assay: In vitro DGK inhibition assay, DGKα liposome (LIPGLO) assay; format: biochemical; details: read-out: Enzyme Inhibition DGKalpha IC50
T1 construct: TVMV protease cleavage site (C); Hexa-His (C); made in house; host or cells: Sf9 insect cells (baculovirus)
How it was run: (§1)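 Baculovirus/Sf9-expressed His-tagged human DGKα or DGKζ (5 nM) on extruded liposomes (2 mM PS, 0.25 mM DAG, 2.75 mM PC) in MOPS pH 7.5 with MgCl2, CaCl2 and 150 μM ATP, 1 h.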

human DGKζ = target: T2, human DGKζ (Homo sapiens, UniProt Q13574); assay: In vitro DGK inhibition assay, DGKζ liposome (LIPGLO) assay; format: biochemical; details: read-out: Enzyme Inhibition DGKzeta IC50
T2 construct: TVMV protease cleavage site (C); Hexa-His (C); made in house; host or cells: Sf9 insect cells (baculovirus)
How it was run: as §1

T2 sequence (Q13574 with tags, fused parts or gaps isoform Q13574-4): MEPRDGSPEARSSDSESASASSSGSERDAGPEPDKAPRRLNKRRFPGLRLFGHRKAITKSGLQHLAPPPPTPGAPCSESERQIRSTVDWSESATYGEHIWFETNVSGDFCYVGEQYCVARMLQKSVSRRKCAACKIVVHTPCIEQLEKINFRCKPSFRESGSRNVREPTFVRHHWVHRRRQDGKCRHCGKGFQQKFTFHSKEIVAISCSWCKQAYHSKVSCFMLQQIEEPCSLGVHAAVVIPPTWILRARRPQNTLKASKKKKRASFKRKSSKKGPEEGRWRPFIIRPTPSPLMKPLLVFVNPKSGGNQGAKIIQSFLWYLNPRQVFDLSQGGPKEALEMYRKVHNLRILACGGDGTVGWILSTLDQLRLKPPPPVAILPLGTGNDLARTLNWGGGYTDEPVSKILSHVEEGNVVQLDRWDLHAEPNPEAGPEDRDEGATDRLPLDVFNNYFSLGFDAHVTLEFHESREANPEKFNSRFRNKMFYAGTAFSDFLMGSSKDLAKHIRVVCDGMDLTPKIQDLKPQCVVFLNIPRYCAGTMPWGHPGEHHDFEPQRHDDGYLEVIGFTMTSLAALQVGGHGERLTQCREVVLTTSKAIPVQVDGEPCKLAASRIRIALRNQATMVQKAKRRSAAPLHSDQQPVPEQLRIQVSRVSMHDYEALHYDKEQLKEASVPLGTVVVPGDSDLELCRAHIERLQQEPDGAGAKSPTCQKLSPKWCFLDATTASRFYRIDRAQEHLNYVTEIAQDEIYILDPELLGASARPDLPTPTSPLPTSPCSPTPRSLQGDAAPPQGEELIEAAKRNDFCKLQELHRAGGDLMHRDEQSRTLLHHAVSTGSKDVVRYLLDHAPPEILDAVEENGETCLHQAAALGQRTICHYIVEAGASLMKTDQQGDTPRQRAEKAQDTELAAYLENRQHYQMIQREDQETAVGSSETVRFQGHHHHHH
T1 sequence (P23743 with tags, fused parts or gaps): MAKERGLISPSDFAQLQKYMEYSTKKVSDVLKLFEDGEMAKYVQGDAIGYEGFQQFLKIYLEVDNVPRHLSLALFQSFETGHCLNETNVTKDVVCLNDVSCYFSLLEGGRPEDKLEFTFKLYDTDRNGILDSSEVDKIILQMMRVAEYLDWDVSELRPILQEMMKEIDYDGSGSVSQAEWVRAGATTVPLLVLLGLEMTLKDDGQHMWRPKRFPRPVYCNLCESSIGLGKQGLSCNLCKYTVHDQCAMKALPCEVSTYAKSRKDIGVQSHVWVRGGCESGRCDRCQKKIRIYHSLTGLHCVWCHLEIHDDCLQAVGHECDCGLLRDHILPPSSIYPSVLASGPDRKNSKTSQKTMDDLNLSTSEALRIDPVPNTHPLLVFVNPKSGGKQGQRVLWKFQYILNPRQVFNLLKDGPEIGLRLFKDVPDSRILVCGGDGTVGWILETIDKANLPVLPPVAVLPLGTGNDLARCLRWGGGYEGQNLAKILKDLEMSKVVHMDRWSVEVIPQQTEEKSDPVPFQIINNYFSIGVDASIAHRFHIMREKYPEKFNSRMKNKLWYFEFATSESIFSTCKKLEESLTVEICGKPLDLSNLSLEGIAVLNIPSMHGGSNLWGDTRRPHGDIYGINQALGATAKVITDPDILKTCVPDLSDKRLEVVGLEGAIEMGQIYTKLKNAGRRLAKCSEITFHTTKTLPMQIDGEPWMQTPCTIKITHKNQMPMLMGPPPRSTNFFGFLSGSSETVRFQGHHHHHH

SMILES | IC50 (human DGKα) [µM] | IC50 (human DGKζ) [µM]
CN(C)C(=O)c1ccc(-c2cccc(N(CC3CC3)c3cc(=O)n(C)c4ccc(C#N)nc34)c2)cc1 [Example 101, 3′-((6-cyano-1-methyl-2-oxo-1,2-dihydro-1,5-naphthyridin-4-yl)(cyclopropylmethyl)amino)-N,N-dimethyl-[1,1′-biphenyl]-4-carboxamide] | 0.93 | 13
Cn1c(=O)cc(N(CC2CC2)c2cccc(-c3ccc(CNS(C)(=O)=O)cc3)c2)c2nc(C#N)ccc21 [Example 102, N-((3′-((6-cyano-1-methyl-2-oxo-1,2-dihydro-1,5-naphthyridin-4-yl)(cyclopropylmethyl)amino)-[1,1′-biphenyl]-4-yl)methyl)methanesulfonamide] | 0.18 | 3.5
Cn1c(=O)cc(N(CC2CC2)c2cccc(-c3ccc(C(N)=O)cc3)c2)c2nc(C#N)ccc21 [Example 103, 3′-((6-cyano-1-methyl-2-oxo-1,2-dihydro-1,5-naphthyridin-4-yl)(cyclopropylmethyl)amino)-[1,1′-biphenyl]-4-carboxamide] | 0.12 | 2
Cn1c(=O)cc(N(CC2CC2)c2cccc(-c3cccc(CNS(C)(=O)=O)c3)c2)c2nc(C#N)ccc21 [Example 105, N-((3′-((6-cyano-1-methyl-2-oxo-1,2-dihydro-1,5-naphthyridin-4-yl) (cyclopropylmethyl)amino)-[1,1′-biphenyl]-3-yl)methyl)methanesulfonamide] | 33 | 4.4
Cn1c(=O)cc(N(CC2CC2)c2cccc(-c3cccnc3)c2)c2nc(C#N)ccc21 [Example 106, 8-((cyclopropylmethyl)(3-(pyridin-3-yl)phenyl)amino)-5-methyl-6-oxo-5,6-dihydro-1,5-naphthyridine-2-carbonitrile] | 0.66 | 2.2
CN(C)c1ccc(-c2cccc(N(CC3CC3)c3cc(=O)n(C)c4ccc(C#N)nc34)c2)cc1 [Example 107, 8-((cyclopropylmethyl)(4′-(dimethylamino)-[1,1′-biphenyl]-3-yl)amino)-5-methyl-6-oxo-5,6-dihydro-1,5-naphthyridine-2-carbonitrile] | 0.022 | 2

Continued, values first:

IC50 (human DGKα) [µM] | IC50 (human DGKζ) [µM] | SMILES
1.9 | 8 | Cn1c(=O)cc(N(CC2CC2)c2cccc(-c3ccccc3Cl)c2)c2nc(C#N)ccc21 [Example 97, 8-((2′-chloro-[1,1′-biphenyl]-3-yl)(cyclopropylmethyl)amino)-5-methyl-6-oxo-5,6-dihydro-1,5-naphthyridine-2-carbonitrile]
1.8 | 31 | Cn1c(=O)cc(N(CC2CC2)c2cccc(-c3cccc(O)c3)c2)c2nc(C#N)ccc21 [Example 99, 8-((cyclopropylmethyl)(3′-hydroxy-[1,1′-biphenyl]-3-yl)amino)-5-methyl-6-oxo-5,6-dihydro-1,5-naphthyridine-2-carbonitrile]
41 | 5.2 | Cn1c(=O)cc(N(CC2CC2)c2cccc(-c3cccc(C(N)=O)c3)c2)c2nc(C#N)ccc21 [Example 104, 3′-((6-cyano-1-methyl-2-oxo-1,2-dihydro-1,5-naphthyridin-4-yl) (cyclopropylmethyl)amino)-[1,1′-biphenyl]-3-carboxamide]
44 | 3.7 | CN(C)C(=O)c1cccc(-c2cccc(N(CC3CC3)c3cc(=O)n(C)c4ccc(C#N)nc34)c2)c1 [Example 108, 3′-((6-cyano-1-methyl-2-oxo-1,2-dihydro-1,5-naphthyridin-4-yl)(cyclopropylmethyl)amino)-N,N-dimethyl-[1,1′-biphenyl]-3-carboxamide]
6.3 | 3.7 | CN(C)c1cccc(-c2cccc(N(CC3CC3)c3cc(=O)n(C)c4ccc(C#N)nc34)c2)c1 [Example 109, 8-((cyclopropylmethyl)(3′-(dimethylamino)-[1,1′-biphenyl]-3-yl)amino)-5-methyl-6-oxo-5,6-dihydro-1,5-naphthyridine-2-carbonitrile]
